Measurements reported in the NIST ThermoML archive (doi:10.1016/j.fluid.2004.11.019).

Experiment: xn = mol fraction of the nth substance listed
Settings: 323.15 K, Liquid

CCO [ethanol] + O
mass density [kg/m3]
Settings | 20000 kPa | 30000 kPa | 40000 kPa
x1 = 0.003 | – | 999 | 1003.1
x1 = 0.0042 | – | 998 | 1002
x1 = 0.0082 | – | 996.5 | 1000.5
x1 = 0.0119 | – | 995.2 | 999.2
x1 = 0.0158 | – | 993 | 996.9
x1 = 0.0184 | – | 991.5 | 995.5
x1 = 0.0219 | – | 990.4 | 994.4
x1 = 0.0255 | – | 988.7 | 992.7
x1 = 0.0279 | – | 987.1 | 991.1
x1 = 0.0315 | – | 986.3 | 990.2
x1 = 0.0366 | – | 983.6 | 987.6
x1 = 0.0392 | – | 982.4 | 986.3
x1 = 0.0439 | – | 980.8 | 984.7
x1 = 0.0483 | – | 978.8 | 982.7
x1 = 0.0516 | – | 978 | 982
x1 = 0.0559 | – | 976.6 | 980.5
x1 = 0.06 | – | 975.1 | 979.1
x1 = 0.0652 | – | 973.1 | 977
x1 = 0.0679 | – | 972.3 | 976.3
x1 = 0.0722 | – | 970.5 | 974.4
x1 = 0.0801 | – | 967.4 | –
x1 = 0.084 | – | 967 | –
x1 = 0.0879 | – | 965.3 | –
x1 = 0.0926 | – | 963.7 | –
x1 = 0.0958 | – | 962.6 | –
x1 = 0.1006 | – | 961 | –
x1 = 0.1111 | – | 957.3 | –
x1 = 0.1225 | 949.2 | 953.4 | –
x1 = 0.1296 | 946.9 | 951.1 | –
x1 = 0.1402 | 943.3 | 947.6 | –
x1 = 0.151 | 939.7 | 944 | –
x1 = 0.1601 | 936.7 | 941.1 | –
x1 = 0.1703 | 933.3 | 937.7 | –
x1 = 0.18 | 930.1 | 934.6 | –
x1 = 0.1903 | 926.8 | 931.4 | –
x1 = 0.1996 | 923.8 | 928.4 | –
x1 = 0.2269 | 915.3 | 920.1 | –
x1 = 0.2502 | 908.5 | 913.5 | –
x1 = 0.2745 | 901.6 | 906.7 | –
x1 = 0.3009 | 894.7 | 899.8 | –
x1 = 0.35 | 882.1 | 887.5 | –
x1 = 0.4034 | 869.8 | 875.5 | –
x1 = 0.4501 | 859.7 | 865.7 | –
x1 = 0.498 | 850.6 | 856.8 | –
x1 = 0.5501 | 841.2 | 847.6 | –
x1 = 0.5998 | 833.5 | 839.6 | –
x1 = 0.6489 | 825.3 | 832.1 | –
x1 = 0.6967 | 818.4 | 825.4 | –
x1 = 0.7475 | 811.7 | 818.8 | –
x1 = 0.7996 | 804.9 | 812.3 | –
x1 = 0.8484 | 799.1 | 806.6 | –
x1 = 0.8993 | 793.2 | 800.9 | –
x1 = 0.9503 | 787.7 | 795.6 | –
x1 = 1 | 782.3 | 790.3 | –
